Columns and labels:
Assay in all cases: relative viability (nuclei count vs DMSO), 5 days (fraction); higher = more cells survive
[1] = compound: CS(=O)(=O)c1ccc(-c2cnc(N)c(C(=O)Nc3ccccc3)n2)cc1 [VE-821] + COc1cccc2cc(-c3nc([C@H]4CC[C@H](C(=O)O)CC4)n4ncnc(N)c34)[nH]c12 [OSI-027] (partner 0.5 µM)
In short: (§1)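 A single step with final 0.05% Triton X-100, 1% formaldehyde and 1 ug/ml Hoechst fixed the cells and stained nuclei 5 days after treatment. Lung cancer cell lines in 1536-well plates had been treated by pin tool the day after seeding with one drug alone or a fixed anchor-drug dose plus five library-drug doses (not always all listed) in √10 steps, and nuclei were counted on 4× images. Relative viability is the ratio of nuclei in treated wells to nuclei in vehicle wells, taken as the median of duplicate plates.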

[2] = compound: CS(=O)(=O)c1ccc(-c2cnc(N)c(C(=O)Nc3ccccc3)n2)cc1 [VE-821] + Cc1nc(Nc2ncc(C(=O)Nc3c(C)cccc3Cl)s2)cc(N2CCN(CCO)CC2)n1 [Dasatinib] (partner 0.075 µM)
In short: as §1

[3] = compound: CS(=O)(=O)c1ccc(C(=O)Nc2ccc(Cl)c(-c3ccccn3)c2)c(Cl)c1 [Vismodegib] + CC(=O)Nc1cccc(-n2c(=O)n(C3CC3)c(=O)c3c(Nc4ccc(I)cc4F)n(C)c(=O)c(C)c32)c1 [Trametinib] (partner 0.02 µM)
In short: as §1

[4] = compound: CS(=O)(=O)c1ccc(C(=O)Nc2ccc(Cl)c(-c3ccccn3)c2)c(Cl)c1 [Vismodegib] + N=C(N)NC(=N)NCCc1ccccc1 [Phenformin] (partner 250 µM)
In short: as §1

Cell Line | relative viability ([1]; first compound 0.08 µM) | relative viability ([1]; first compound 0.253 µM) | relative viability ([1]; first compound 0.8 µM) | relative viability ([1]; first compound 2.53 µM) | relative viability ([1]; first compound 8 µM) | relative viability ([2]; first compound 0.08 µM) | relative viability ([2]; first compound 0.253 µM) | relative viability ([2]; first compound 0.8 µM) | relative viability ([2]; first compound 2.53 µM) | relative viability ([2]; first compound 8 µM) | relative viability ([3]; first compound 0.08 µM) | relative viability ([3]; first compound 0.253 µM) | relative viability ([3]; first compound 0.8 µM) | relative viability ([3]; first compound 2.53 µM) | relative viability ([3]; first compound 8 µM) | relative viability ([4]; first compound 0.08 µM) | relative viability ([4]; first compound 0.253 µM) | relative viability ([4]; first compound 0.8 µM) | relative viability ([4]; first compound 2.53 µM) | relative viability ([4]; first compound 8 µM)
NCI-H1651 | 0.781 | 0.629 | 0.578 | 0.686 | 0.521 | 0.471 | 0.46 | 0.424 | 0.437 | 0.323 | 0.813 | 0.822 | 0.81 | 0.815 | 0.84 | 0.353 | 0.336 | 0.365 | 0.343 | 0.327
NCI-H2170 | 0.638 | 0.757 | 0.732 | 0.648 | 0.636 | 0.62 | 0.465 | 0.463 | 0.421 | 0.381 | 0.89 | 0.897 | 1 | 0.857 | 0.987 | 0.416 | 0.409 | 0.444 | 0.433 | 0.39
NCI-H1975 | 0.901 | 0.589 | – | 0.471 | 0.439 | 0.372 | 0.287 | – | 0.278 | 0.253 | 0.32 | 0.24 | 0.374 | 0.357 | 0.331 | 0.402 | 0.408 | 0.398 | 0.424 | 0.389
NCI-H1437 | 1.12 | 0.831 | 0.838 | 0.851 | 0.756 | 0.479 | 0.357 | 0.386 | 0.498 | 0.302 | 0.462 | 0.485 | 0.493 | 0.535 | 0.536 | 0.296 | 0.309 | 0.291 | 0.333 | 0.289
HOP-62 | 1.04 | 0.809 | 0.73 | 0.925 | 0.697 | 0.708 | 0.656 | 0.651 | 0.858 | 0.684 | 0.357 | 0.379 | 0.37 | 0.354 | 0.376 | 0.645 | 0.637 | 0.665 | 0.698 | 0.569
NCI-H2405 | 0.634 | 0.632 | 0.628 | 0.751 | 0.686 | 0.178 | 0.211 | 0.202 | 0.203 | 0.205 | 0.671 | 0.616 | 0.592 | 0.598 | 0.638 | 0.336 | 0.386 | 0.381 | 0.381 | 0.39
SK-MES-1 | 0.665 | 0.558 | 0.53 | 0.533 | 0.233 | 0.389 | 0.379 | 0.274 | 0.332 | 0.199 | 0.574 | 0.504 | 0.553 | 0.558 | 0.545 | 0.625 | 0.647 | 0.669 | 0.635 | 0.631
LC-2-ad | 0.878 | 0.945 | 0.986 | 0.928 | 0.789 | 0.856 | 0.607 | 0.679 | 0.586 | 0.404 | 0.892 | 0.834 | 0.894 | 0.834 | 0.898 | 0.626 | 0.583 | 0.561 | 0.618 | 0.494
NCI-H1944 | 0.441 | 0.354 | 0.383 | 0.463 | 0.328 | 0.22 | 0.213 | 0.185 | 0.27 | 0.228 | 0.386 | 0.395 | 0.425 | – | 0.399 | 0.192 | 0.207 | 0.205 | 0.197 | 0.216
NCI-H322M | 0.533 | 0.519 | 0.577 | 0.482 | 0.286 | 0.255 | 0.264 | 0.248 | 0.301 | 0.268 | 0.52 | 0.507 | 0.522 | 0.518 | 0.525 | 0.798 | 0.771 | 0.783 | 0.729 | 0.756
HCC-366 | 0.931 | 0.789 | 0.605 | 0.492 | 0.138 | 0.67 | 0.633 | 0.516 | 0.255 | 0.0491 | 0.348 | 0.292 | 0.334 | 0.37 | 0.343 | 0.683 | 0.614 | 0.631 | 0.619 | 0.586
HCC-78 | 0.385 | 0.349 | 0.372 | 0.401 | 0.326 | 0.453 | 0.281 | 0.376 | 0.432 | 0.33 | 0.826 | 0.768 | 0.598 | 0.743 | 0.739 | 0.664 | 0.704 | 0.575 | 0.615 | 0.683
CAL-12T | 0.529 | 0.612 | 0.489 | 0.423 | 0.483 | 0.499 | 0.327 | 0.372 | 0.443 | 0.243 | 0.309 | 0.333 | 0.372 | 0.355 | 0.426 | 0.641 | 0.584 | 0.578 | 0.561 | 0.578
NCI-H2228 | 0.636 | 0.459 | 0.628 | 0.695 | 0.2 | 0.602 | 0.457 | 0.621 | 0.528 | 0.31 | 0.368 | 0.42 | 0.484 | 0.417 | 0.585 | 0.387 | 0.452 | 0.301 | 0.296 | 0.314
NCI-H522 | 0.718 | 0.779 | 0.76 | 0.65 | 0.677 | 0.77 | 0.918 | 0.704 | 0.902 | 0.825 | 0.797 | 0.763 | 0.639 | 0.609 | 0.669 | 0.643 | 0.618 | 0.673 | 0.657 | 0.632
EKVX | 0.696 | 0.675 | 0.676 | 0.745 | 0.605 | 0.531 | 0.483 | 0.449 | 0.45 | 0.328 | – | 0.392 | 0.273 | 0.273 | 0.315 | 0.225 | 0.227 | 0.24 | 0.224 | 0.233
HARA | 0.75 | 0.434 | 0.497 | 0.76 | 0.392 | 0.271 | 0.221 | 0.315 | 0.254 | 0.253 | 0.749 | – | 0.613 | 0.689 | 0.659 | 0.47 | 0.355 | 0.537 | 0.503 | 0.415
LXF-289 | 0.949 | 0.726 | 0.902 | 0.971 | 0.759 | 0.235 | 0.247 | 0.195 | 0.223 | 0.155 | 0.675 | 0.654 | 0.723 | 0.664 | 0.648 | 0.524 | 0.495 | 0.508 | 0.517 | 0.467
NCI-H1793 | 0.247 | 0.305 | 0.232 | 0.272 | 0.242 | 0.376 | 0.371 | 0.437 | 0.427 | 0.386 | – | 0.366 | 0.479 | 0.409 | 0.413 | – | 0.36 | 0.358 | 0.365 | 0.375
NCI-H650 | 0.499 | 0.473 | 0.57 | 0.455 | 0.532 | 0.501 | 0.445 | 0.465 | 0.528 | 0.426 | 0.891 | 0.91 | 0.846 | 0.981 | 1.05 | 0.469 | 0.417 | 0.45 | 0.418 | 0.393
NCI-H647 | 0.748 | 0.786 | 0.676 | 0.509 | 0.376 | 0.232 | 0.168 | 0.152 | 0.194 | 0.122 | 0.446 | 0.486 | 0.517 | 0.409 | 0.55 | 0.439 | 0.491 | 0.509 | 0.507 | 0.433
NCI-H3122 | 1.01 | 0.958 | 1 | 1.08 | 0.758 | 0.946 | 0.726 | 0.83 | 0.874 | 0.694 | 0.247 | 0.254 | 0.216 | 0.247 | 0.202 | 0.377 | 0.356 | 0.362 | 0.365 | 0.36
PC-3 [JPC-3] | 0.89 | 0.724 | 0.887 | 0.829 | 0.749 | 1.06 | 0.967 | 1.07 | 1.02 | 0.907 | 0.695 | 0.713 | 0.636 | 0.615 | 0.729 | 0.483 | 0.48 | 0.457 | 0.483 | 0.483
NCI-H1355 | 0.443 | 0.346 | 0.375 | 0.442 | 0.307 | 0.748 | 0.65 | 0.609 | 0.627 | 0.575 | 0.47 | 0.417 | 0.392 | 0.39 | 0.406 | 0.455 | 0.474 | 0.462 | 0.458 | 0.401
NCI-H1792 | 0.725 | 0.786 | 0.608 | 0.447 | 0.484 | 0.981 | 0.89 | 0.731 | 0.851 | 0.727 | 0.392 | 0.447 | 0.361 | 0.376 | 0.398 | – | 0.318 | 0.254 | – | 0.41
NCI-H838 | 0.431 | 0.341 | 0.329 | 0.425 | 0.435 | 0.301 | 0.259 | – | 0.288 | 0.24 | 0.536 | 0.488 | 0.535 | 0.5 | 0.624 | 0.53 | 0.573 | 0.559 | 0.67 | 0.612
